The test system of one experiment is SK-OV-3 ovarian. The experiment in a line: NCI tumour cell line growth inhibition, 48 h.
The subject of the next experiment is TK-10 renal. Nature of the experiment: NCI tumour cell line growth inhibition, 48 h.

Each structure is given as a SMILES string.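 Tested at 5 concentrations; 48 h exposure; 96-well plates; endpoints linearly interpolated, else capped at highest concentration. GI50 = concentration required for 50% inhibition of growth. TGI: concentration producing complete growth inhibition.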 Where a SMILES comes first, the peptide text is derived from it. Bridges are numbered along the chain shown (N, C = ends). [ ]: non-standard residue; d: D form. The star is where a group is joined. PhAc = O=C(Cc1ccccc1)*

As for `O=C1Oc2ccccc2C(=O)/C1=C/N1C(=O)/C(=C/c2ccc3c(c2)OCO3)SC1=S`, the TGI with SK-OV-3 ovarian came to 38.5 µM. Also, in the experiment on TK-10 renal, the GI50 is 10.1 µM and the TGI was 22.7 µM.

With `CC1=[N+]([O-])C(C)(C)N(N=O)C1(C)C`, the TGI in the experiment with TK-10 renal is over 10 µM.

As to `CC(C)/C(Cl)=N/OC(=O)Nc1cccc(C(F)(F)F)c1`, the TGI in the experiment with SK-OV-3 ovarian was determined as 31.7 µM; with TK-10 renal, 12.7 µM. The corresponding values for `CN(C)CCCNC(=O)c1cc(NC(=O)c2cc(NS(=O)(=O)c3ccc4c(c3)C(=O)c3ccccc3C4=O)cn2C)cn1C` are over 100 µM and over 100 µM. Take `CCSC1=N/C(=C\c2ccco2)C(NN)=N1`: the TGI in the experiment on SK-OV-3 ovarian and in the experiment with TK-10 renal was over 50 µM in each case. `C=C1[C@H](OC(=O)C(C)C)[C@@H](OC(C)=O)[C@@H](OC(C)=O)C(C)(C)[C@@H]2O[C@H]2[C@@H](C)C(=O)[C@@]2(OC(C)=O)C[C@@](C)(OC(C)=O)[C@H](OC(C)=O)[C@@H]2[C@H]1OC(C)=O`: the TGI in the experiment with SK-OV-3 ovarian and in the experiment with TK-10 renal was over 100 µM in each case. For the compound `C=CCc1c(C)nc(C)nc1N/N=C/C=C/c1ccccc1`, the TGI in the experiment with SK-OV-3 ovarian is over 100 µM; in the experiment with TK-10 renal, 99.9 µM. The corresponding values for `O=C(Cc1ccccc1)N[C@@H]1COC(=O)[C@@H]2CCCN2C(=O)[C@@H]2CCCN2C1=O` (PhAc-[dS]-Pro-Pro; ester 1-C) are over 100 µM and over 100 µM. Consider `C=C(C)CNC(=S)N(N)c1ccc(OC)cc1`, for which the TGI in the experiment with SK-OV-3 ovarian and with TK-10 renal was over 100 µM in each case. With `CCOC(=O)CC(=O)C(=O)NNC1=NCCN1`, the TGI with SK-OV-3 ovarian and with TK-10 renal was over 100 µM in each case. For the compound `O=C1CCCC2=C1CC1=C(CCCC1=O)N2c1ccccc1C(=O)O`, the TGI in the experiment with SK-OV-3 ovarian and in the experiment on TK-10 renal was over 100 µM each time.

Regarding `CC1=C(C#N)C23C(=O)c4ccccc4C(O)=C2C(=O)C=CC3(O)N1` (configuration not stated), the TGI in the experiment on SK-OV-3 ovarian is over 100 µM; in the experiment on TK-10 renal, 35.7 µM. As for `Cc1ccc(/C=N/Nc2nc3ccccc3s2)s1`, the TGI in the experiment with SK-OV-3 ovarian and with TK-10 renal was over 100 µM each time. `CC1(C)C=Cc2c(cc3oc4ccc5c(c4c(=O)c3c2O)C=CC(C)(C)O5)O1`: the TGI with SK-OV-3 ovarian and in the experiment with TK-10 renal was over 100 µM each time. Consider `COc1ccc2oc(=Nc3ccccc3)c(C(N)=O)cc2c1`, for which the TGI in the experiment with SK-OV-3 ovarian is over 70.2 µM; with TK-10 renal, over 87.6 µM. In the same order, the values of `CCN1C(=S)n2cccc2C1CC(=O)c1ccc(Cl)cc1` (configuration not stated) are over 100 µM and over 100 µM. In the same order, the values of `CC1(C)Oc2ccc3c(=O)c(-c4ccccc4)c(-c4ccccc4)oc3c2C1C(=O)O` (configuration not stated) are over 100 µM and over 100 µM. The corresponding values for `CC1=C(C)CC(C#N)(C#N)C(C#N)(C#N)C1` are over 10 µM and over 8.75 µM. On to `Cc1[nH]n(C2=NCCN2)c(=O)c1C`, for which the TGI in the experiment on SK-OV-3 ovarian and in the experiment on TK-10 renal was over 100 µM each time.

For `C=CCOc1ccc(/C(N=Nc2ccc(C)cc2)=N/NC(=O)c2ccccc2)cc1OC`, in the experiment on TK-10 renal, the TGI was over 100 µM. As to `CC(C)(C)OC(=O)[C@@H]1CCC(=S)N1Cc1ccccc1`, the TGI in the experiment on SK-OV-3 ovarian and in the experiment with TK-10 renal was over 100 µM in each case. As to `O=C(NCCc1ccccc1)[C@H]1CCCC[C@@H]1CCO`, the TGI in the experiment with SK-OV-3 ovarian and in the experiment on TK-10 renal was over 100 µM in each case. `c1ccc(N=C(N2CCOCC2)N(CCN2CCOCC2)c2ccccc2)cc1`: the TGI with SK-OV-3 ovarian and in the experiment with TK-10 renal was over 100 µM each time. As to `C1=Nc2ccc(cc2)N=Cc2ccccc2OCc2cccc(n2)COc2ccccc21`, the TGI in the experiment with SK-OV-3 ovarian and in the experiment with TK-10 renal was over 100 µM throughout.

On to `CC1=CC=C2c3ccccc3C=CN2C(=O)C1`, for which the TGI with SK-OV-3 ovarian was over 100 µM; with TK-10 renal, 84.9 µM. `C=C[C@]1(O)CCC[C@]2(C)C(=O)CCC12C` (some centres not stated) showed a TGI in the experiment with SK-OV-3 ovarian of over 100 µM. On the same count and under the same terms, with `N=c1oc2c(Br)cc(Br)cc2cc1C(=O)Nc1ccccn1` the figure was over 100 µM. In turn, `Cc1cc(N)ccc1N=Nc1ccc(S(=O)(=O)CCOS(=O)(=O)O)cc1` returned a TGI in the experiment with TK-10 renal of 27.5 µM. The same measure, in the same setting: for `CCOC(=O)C(NC(=O)C(CCCCNP(=O)(OCC)OCC)NC(=O)C(C)NC(C)=O)C(C)C` (configuration not stated) the value was over 100 µM; for `Cc1ccc2c3c(cnc2n1)C(=O)OCCN3C`, over 100 µM; for `CCCCCN1CCN(c2ncccn2)CC1`, over 100 µM. Consider `Oc1cccc(-c2ccc3c4c2O[C@H]2c5[nH]c6ccccc6c5C[C@@]5(O)[C@@H](C3)N(CC3CC3)CC[C@]425)c1`, for which the TGI in the experiment with TK-10 renal was 4.34 µM. For the compound `Nc1ccc(Oc2ccc(C3(c4ccc(Oc5ccc(N)cc5)cc4)C4CC5C6CC7CC5C3C(C7)C6C4)cc2)cc1`, the TGI in the experiment on TK-10 renal is over 100 µM.

(Values after PubChem BioAssay (NCI).)
